According to patent publication US20160310472A1, “PHARMACEUTICAL COMPOSITIONS COMPRISING SULBACTAM AND IMIPENEM” (priority 2013, published 2016):

Key:
A. baumannii S-5 strain = assay: Mouse Systemic Infection Model; settings: agent alone; Swiss albino mice, subcutaneous TID from 1 hour post infection, survival over 10 days
A. baumannii S-12 strain = assay: Time-kill study, viable bacterial count in broth, A. baumannii S-12; format: cell-based, Acinetobacter baumannii
Method: (§1) The antibacterial activity of compositions according to the invention against various bacterial strains was investigated. In a typical study, freshly grown cultures were diluted to required cell density (initial starting inoculum) in Brain Heart Infusion broth medium (BD, USA). The antibacterial agents (either alone or in combination) in required concentrations were added into the culture containing medium. The samples were incubated under shaking conditions (120 rpm) at 37° C. Enumeration of viable bacterial count was undertaken, every 2 hours, by diluting in normal saline and plating on to Tryptic Soya Agar plates (BD, USA). The plates were incubated for 24 hours to arrive at a viable bacterial count.

[1] = test system: A. baumannii S-224 strain; assay: Time-kill study, viable bacterial count in broth, A. baumannii S-224; format: cell-based, Acinetobacter baumannii
Method: as §1
A. baumannii S-224 strain expresses both Class D beta-lactamases (OXA-51 and OXA-23 like) and Class B metalo-beta-lactamases (NDM).

## C[C@@H](O)[C@H]1C(=O)N2C(C(=O)O)=C(SCCN=CN)C[C@H]12 [Imipenem]
A. baumannii S-5 strain
  ED50: >50 mg/kg body weight
  ED90: >50 mg/kg body weight
A. baumannii S-12 strain; Imipenem 8 mcg/ml, 0 hour
  Bacterial count: 6.87 log CFU/ml
A. baumannii S-12 strain; Imipenem 8 mcg/ml, 2 hours
  Bacterial count: 7.69 log CFU/ml
A. baumannii S-12 strain; Imipenem 8 mcg/ml, 4 hours
  Bacterial count: 8.27 log CFU/ml
A. baumannii S-12 strain; Imipenem 8 mcg/ml, 6 hours
  Bacterial count: 8.27 log CFU/ml
A. baumannii S-12 strain; Imipenem 16 mcg/ml, 0 hour
  Bacterial count: 6.87 log CFU/ml
A. baumannii S-12 strain; Imipenem 16 mcg/ml, 2 hours
  Bacterial count: 7.69 log CFU/ml
A. baumannii S-12 strain; Imipenem 16 mcg/ml, 4 hours
  Bacterial count: 8.11 log CFU/ml
A. baumannii S-12 strain; Imipenem 16 mcg/ml, 6 hours
  Bacterial count: 7.84 log CFU/ml
[1]; Imipenem 8 mcg/ml, 0 hour
  Bacterial count: 6.74 log CFU/ml
[1]; Imipenem 8 mcg/ml, 2 hours
  Bacterial count: 7.20 log CFU/ml
[1]; Imipenem 8 mcg/ml, 4 hours
  Bacterial count: 8.11 log CFU/ml
[1]; Imipenem 8 mcg/ml, 6 hours
  Bacterial count: 8.04 log CFU/ml
[1]; Imipenem 16 mcg/ml, 0 hour
  Bacterial count: 6.74 log CFU/ml
[1]; Imipenem 16 mcg/ml, 2 hours
  Bacterial count: 7.17 log CFU/ml
[1]; Imipenem 16 mcg/ml, 4 hours
  Bacterial count: 8.04 log CFU/ml
[1]; Imipenem 16 mcg/ml, 6 hours
  Bacterial count: 7.90 log CFU/ml

## CC1(C)[C@H](C(=O)O)N2C(=O)C[C@H]2S1(=O)=O [Sulbactam]
A. baumannii S-12 strain; S-12 strain
  Decrease in number of colony forming units (in words): not observed
A. baumannii S-12 strain; Sulbactam 16 mcg/ml, 0 hour
  Bacterial count: 6.87 log CFU/ml
A. baumannii S-12 strain; Sulbactam 16 mcg/ml, 2 hours
  Bacterial count: 5.84 log CFU/ml
A. baumannii S-12 strain; Sulbactam 16 mcg/ml, 4 hours
  Bacterial count: 5.27 log CFU/ml
A. baumannii S-12 strain; Sulbactam 16 mcg/ml, 6 hours
  Bacterial count: 6.23 log CFU/ml
[1]; Sulbactam 16 mcg/ml, 0 hour
  Bacterial count: 6.74 log CFU/ml
[1]; Sulbactam 16 mcg/ml, 2 hours
  Bacterial count: 6.65 log CFU/ml
[1]; Sulbactam 16 mcg/ml, 4 hours
  Bacterial count: 7.17 log CFU/ml
[1]; Sulbactam 16 mcg/ml, 6 hours
  Bacterial count: 7.27 log CFU/ml
